Structures are written as SMILES. Values joined by “and” are separate entries in the source; they are usually repeats but may differ in a detail not shown here. Equal values may be shown once.

This assay addresses T1, human GPR40 (Homo sapiens, UniProt O14842).
T1 construct: expressed in transfected cells
In words: GPR40 calcium flux assay, human GPR40. The format is cell-based. The settings on record: transfected HEK293 cells stably expressing human GPR40; multiple values = repeated testing; read-out: hGPR40 Ca^2+ Assay EC50. On the procedure: Compounds were tested in a calcium flux assay using transfected HEK293 cells stably expressing either human GPR40 or rat GPR40. Human GPR40 expressing cells were cultured in DMEM-High Glucose media supplemented with 10% fetal bovine serum, 1×L-Glutamine, 1×Penicillin/Streptomycin and 500 μg/mL G418. Rat GPR40 expressing cells were cultured in DMEM-High Glucose media supplemented with 10% fetal bovine serum and 1 μg/mL puromycin. Cells were plated into poly-D-lysine coated 384-well plates and cultured overnight in a 37° C. humidified tissue culture incubator under 5% CO2/[…] atmosphere. On the day of the experiment, the culture media was replaced with assay buffer (HBSS, 20 mM HEPES, 0.1% BSA) and the cells incubated at 37° C. for 1 h. Calcium-sensitive fluorescent dye (Fluo 8 No-Wash Calcium Dye, ABD Bioquest) was then added and the cells incubated for another 30 min at 37° C. followed by 15 min at room temperature while protected from the light. The cell plate and a plate of diluted compounds of Formula (I) were loaded into a fluorescent plate reader that added compounds onto the cells while measuring the fluorescence intensity of each well. The plate reader recorded fluorescence intensity at 1 second intervals for 8 min and provided the data for analysis in an Excel format. EC50 values were calculated using Prism (GraphPad) software.
(In general: Calcium flux is commonly read through the fluorescence of an indicator in the cells.)

T1 sequence (O14842 whole entry): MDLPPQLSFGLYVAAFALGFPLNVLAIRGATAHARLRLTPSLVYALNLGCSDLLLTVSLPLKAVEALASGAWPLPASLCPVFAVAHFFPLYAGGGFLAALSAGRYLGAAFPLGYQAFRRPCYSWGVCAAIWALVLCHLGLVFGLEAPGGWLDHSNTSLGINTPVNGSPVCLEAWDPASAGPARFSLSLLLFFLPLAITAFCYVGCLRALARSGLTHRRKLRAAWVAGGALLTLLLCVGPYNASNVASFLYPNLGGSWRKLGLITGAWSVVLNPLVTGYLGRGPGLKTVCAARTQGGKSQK

Take `COc1ccc(F)c(-c2onc(COc3cccc([C@@H](CC(=O)O)C4CC4)c3)c2C2CC2)c1` [Cpd 37, (3S)-3-cyclopropyl-3-[3-[[4-cyclopropyl-5-(2-fluoro-5-methoxy-phenyl)isoxazol-3-yl]methoxy]phenyl]propanoic acid]: the EC50 was 65 nM and 55 nM.
In the case of `COc1ccc(F)c(-c2scc(COc3cccc([C@@H](CC(=O)O)C4CC4)c3)c2C(C)C(F)(F)F)c1` (stereo partly drawn) [Cpd 19, (3S)-3-cyclopropyl-3-[3-[[5-(2-fluoro-5-methoxy-phenyl)-4-(2,2,2-trifluoro-1-methyl-ethyl)-3-thienyl]methoxy]phenyl]propanoic acid], the EC50 is 253 nM and 128 nM.
Turning to `COc1ccc(F)c(-c2onc(COc3cccc([C@@H](CC(=O)O)C4CC4)c3)c2-c2ccc(C)s2)c1` [Cpd 32, (3S)-3-cyclopropyl-3-[3-[[5-(2-fluoro-5-methoxy-phenyl)-4-(5-methyl-2-thienyl)isoxazol-3-yl]methoxy]phenyl]propanoic acid], the 50% effective concentration (EC50) is 31 nM and 27 nM.
In the case of `COc1cc(-c2scc(COc3cccc([C@@H](CC(=O)O)C4CC4)c3)c2C2=CCCC2(C)C)ccn1` [Cpd 31, (3S)-3-cyclopropyl-3-[3-[[4-(5,5-dimethylcyclopenten-1-yl)-5-(2-methoxy-4-pyridyl)-3-thienyl]methoxy]phenyl]propanoic acid] it was 258 nM and 162 nM; in that of `CC1(C)CCC=C1c1c(COc2cccc([C@@H](CC(=O)O)C3CC3)c2)csc1-c1cccc2[nH]ccc12` [Cpd 24, (3S)-3-cyclopropyl-3-[3-[[4-(5,5-dimethylcyclopenten-1-yl)-5-(1H-indol-4-yl)-3-thienyl]methoxy]phenyl]propanoic acid], 68 nM and 66 nM; in that of `CC1(C)CCC=C1c1c(COc2cccc([C@@H](CC(=O)O)C3CC3)c2)csc1-c1ccccc1` [Cpd 20, (3S)-3-cyclopropyl-3-[3-[[4-(5,5-dimethylcyclopenten-1-yl)-5-phenyl-3-thienyl]methoxy]phenyl]propanoic acid], 79 nM and 71 nM.
Regarding `COc1ccc(F)c(-c2onc(COc3cccc([C@@H](CC(=O)O)C4CC4)c3)c2OCC(C)C)c1` [Cpd 39, (3S)-3-cyclopropyl-3-[3-[[5-(2-fluoro-5-methoxy-phenyl)-4-isobutoxy-isoxazol-3-yl]methoxy]phenyl]propanoic acid], the EC50 was 5 nM and 4 nM.
In the case of `COc1cc(-c2onc(COc3cccc([C@@H](CC(=O)O)C4CC4)c3)c2OCC(C)C)c(F)cn1` [Cpd 47, (3S)-3-cyclopropyl-3-[3-[[5-(5-fluoro-2-methoxy-4-pyridyl)-4-isobutoxy-isoxazol-3-yl]methoxy]phenyl]propanoic acid] it was 20 nM and 16 nM.
For `COc1ccc(F)c(-c2onc(COc3cccc([C@@H](CC(=O)O)C4CC4)c3)c2-c2sccc2C)c1` [Cpd 33, (3S)-3-cyclopropyl-3-[3-[[5-(2-fluoro-5-methoxy-phenyl)-4-(3-methyl-2-thienyl)isoxazol-3-yl]methoxy]phenyl]propanoic acid], the EC50 was 215 nM and 178 nM.
In the case of `COc1ccc(F)c(-c2sc(Cl)c(COc3cccc([C@@H](CC(=O)O)C4CC4)c3)c2C(C)C(F)(F)F)c1` (stereo partly drawn) [Cpd 29, (3S)-3-[3-[[2-chloro-5-(2-fluoro-5-methoxy-phenyl)-4-(2,2,2-trifluoro-1-methyl-ethyl)-3-thienyl]methoxy]phenyl]-3-cyclopropyl-propanoic acid] it was 320 nM and 211 nM.
The value for `CN(C)c1cccc(-c2scc(COc3cccc([C@@H](CC(=O)O)C4CC4)c3)c2C2=CCCC2(C)C)c1` [Cpd 17, (3S)-3-cyclopropyl-3-[3-[[5-[3-(dimethylamino)phenyl]-4-(5,5-dimethylcyclopenten-1-yl)-3-thienyl]methoxy]phenyl]propanoic acid] was 242 nM and 232 nM; that for `COc1cc(-c2onc(COc3cccc([C@@H](CC(=O)O)C4CC4)c3)c2C=C(C)C)c(F)cn1` [Cpd 52, (3S)-3-cyclopropyl-3-[3-[[5-(5-fluoro-2-methoxy-4-pyridyl)-4-(2-methylprop-1-enyl)isoxazol-3-yl]methoxy]phenyl]propanoic acid] was 51 nM and 45 nM.

As usually defined, the EC50 is the concentration giving half of the maximal effect.

The values are drawn from patent publication US9920040B2, “GPR40 agonists for the treatment of type II diabetes” (Janssen Pharmaceutica NV, priority 2015, dated 2018).
